We go through 16 compounds from patent publication US20240025892A1 (priority 2020, published 2024).

Each structure is given as a SMILES string. Read-outs that look alike come from different tables or passages of the source.

The target of one series is SIK3 (Homo sapiens (Human), UniProt Q9Y2K2). The series is described as follows: In vitro SIK3 kinase assay. The format is biochemical. The protocol: (§1) Assays were performed in base reaction buffer (20 mM Hepes (pH 7.5), 10 mM MgCl2, 1 mM EGTA, 0.02% Brij35, 0.02 mg/mL BSA, 0.1 mM Na3VO4, 2 mM DTT, 1% DMSO). Compounds were dissolved in 100% DMSO in a 10 mM stock. […] Assays were performed for 20 minutes at room temperature, after which time ^33P-ATP (10 μCi/μL) was added followed by incubation for another 120 minutes at room temperature. Thereafter, radioactivity incorporated into the pEY peptide substrate was detected by filter-binding method. Kinase activity data were expressed as the percent remaining kinase activity in test samples compared to DMSO reactions. IC50 values and curve fits were obtained using Prism (GraphPad Software).
Chain of SIK3 (Q9Y2K2 whole entry): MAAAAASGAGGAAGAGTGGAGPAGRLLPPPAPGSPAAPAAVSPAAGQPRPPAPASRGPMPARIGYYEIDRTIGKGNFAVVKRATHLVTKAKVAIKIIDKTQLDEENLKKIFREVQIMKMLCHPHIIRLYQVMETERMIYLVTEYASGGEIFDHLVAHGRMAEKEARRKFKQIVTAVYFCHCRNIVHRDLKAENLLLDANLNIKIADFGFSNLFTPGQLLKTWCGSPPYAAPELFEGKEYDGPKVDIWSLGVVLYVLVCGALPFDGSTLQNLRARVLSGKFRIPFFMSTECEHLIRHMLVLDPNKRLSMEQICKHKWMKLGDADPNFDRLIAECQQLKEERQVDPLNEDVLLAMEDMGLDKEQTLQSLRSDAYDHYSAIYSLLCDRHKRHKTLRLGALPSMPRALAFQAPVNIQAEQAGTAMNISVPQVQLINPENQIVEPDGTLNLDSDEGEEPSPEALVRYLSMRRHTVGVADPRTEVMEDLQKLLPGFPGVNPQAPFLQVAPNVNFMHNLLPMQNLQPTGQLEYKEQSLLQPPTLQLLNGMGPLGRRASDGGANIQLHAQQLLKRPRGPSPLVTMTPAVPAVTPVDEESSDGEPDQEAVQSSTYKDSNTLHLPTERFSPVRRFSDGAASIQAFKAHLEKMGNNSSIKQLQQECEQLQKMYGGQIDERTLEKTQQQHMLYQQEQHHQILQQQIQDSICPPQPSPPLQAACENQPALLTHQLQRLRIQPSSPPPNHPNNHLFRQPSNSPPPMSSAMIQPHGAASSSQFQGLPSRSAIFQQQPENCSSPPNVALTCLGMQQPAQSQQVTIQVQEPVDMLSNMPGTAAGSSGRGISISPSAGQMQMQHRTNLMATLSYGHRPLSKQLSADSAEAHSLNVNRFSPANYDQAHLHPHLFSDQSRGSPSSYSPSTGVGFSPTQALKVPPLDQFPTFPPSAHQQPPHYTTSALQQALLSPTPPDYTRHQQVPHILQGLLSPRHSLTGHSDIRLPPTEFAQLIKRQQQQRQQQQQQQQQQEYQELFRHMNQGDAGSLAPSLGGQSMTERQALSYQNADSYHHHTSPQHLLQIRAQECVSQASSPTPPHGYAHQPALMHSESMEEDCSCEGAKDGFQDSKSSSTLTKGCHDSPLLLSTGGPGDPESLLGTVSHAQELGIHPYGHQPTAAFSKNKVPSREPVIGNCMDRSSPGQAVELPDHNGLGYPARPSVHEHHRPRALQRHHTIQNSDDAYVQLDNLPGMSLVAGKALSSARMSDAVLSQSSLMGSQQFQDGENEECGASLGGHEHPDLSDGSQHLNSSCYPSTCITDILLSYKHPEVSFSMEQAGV

The test system of another series is CRTC2 (TORC2). The series is described as follows: CRTC2 nuclear translocation (PathHunter U2OS). The format is cell-based. As to conditions: maximal CRTC2 nuclear translocation, U2OS cells, 90 minutes, maximum dose 10 μM. The text has this: PathHunter® Nuclear Translocation cell lines are engineered to co-express two fusion proteins: a) Enzyme Donor (ED) tagged target protein; b) an Enzyme Acceptor (EA) tagged TAZ domain, derived from the CBP/P300 transcription factor, that localizes to the nucleus. Activation of the signaling pathway induces translocation of the ED-tagged target protein into the nucleus, which will force complementation of the two enzyme fragments, and result in the formation of a functional enzyme that will hydrolyze substrate and generate a chemiluminescent signal. U2OS CRTC2 (TORC2) translocation assays were performed in 384 well plates at Eurofins DiscoverX (Freemont, CA). Cells were treated with compounds for 90 minutes in experimental duplicates in 5 point dose response format (4-fold serial dilutions with a maximum dose of 10 μM) followed by […] readout on an Envision 2104 Multilabel Reader. In all experiments, forskolin was used as a positive control and maximal CRTC2 nuclear translocation induced by each compound is expressed as a percentage of the signal stimulated by forskolin.
Representative data are shown in FIG. 4A and presented as percent of the positive control (forskolin) signal.

The test system of another series is RANKL. The series is described as follows: RANKL gene expression in Ocy454 cells (RT-qPCR).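 Also: Ocy454 cells moved to 37 °C for osteocytic differentiation before compound exposure, RANKL mRNA by SYBR Green qRT-PCR, 2^−ΔΔCT with β-actin normalization, duplicate wells.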 As to conditions: maximal RANKL fold induction versus DMSO, four hours. A general note: Real-time PCR tracks product formation cycle by cycle.
Series [1] deals with NanoLuc-SIK2 fusion in HEK293 cells (Homo sapiens (Human), UniProt Q9H0K1). Put plainly: cell-based. On the procedure:
Assays were performed at Reaction Biology Corporation (Malvern, PA) in HEK293 cells from ATCC in 384 well plate format using Promega's NanoBRET TE intracellular kinase assay platform. HEK293 cells transiently expressing NanoLuc-SIK2 fusion vector were seeded into 384 well plates. Cells were pre-treated with the NanoBRET Tracer K-4 and then treated with compounds for 60 minutes in 10 point dose response format. […] IC50 values were calculated and IC50 curves were plotted using the GraphPad Prism 4 program on a sigmoidal dose response equation.

The next series deals with SIK1 (Homo sapiens (Human), UniProt P57059). The series is described as follows: In vitro SIK1 kinase assay. Type of series: biochemical. On the procedure: as §1
Chain of SIK1 (P57059 whole entry): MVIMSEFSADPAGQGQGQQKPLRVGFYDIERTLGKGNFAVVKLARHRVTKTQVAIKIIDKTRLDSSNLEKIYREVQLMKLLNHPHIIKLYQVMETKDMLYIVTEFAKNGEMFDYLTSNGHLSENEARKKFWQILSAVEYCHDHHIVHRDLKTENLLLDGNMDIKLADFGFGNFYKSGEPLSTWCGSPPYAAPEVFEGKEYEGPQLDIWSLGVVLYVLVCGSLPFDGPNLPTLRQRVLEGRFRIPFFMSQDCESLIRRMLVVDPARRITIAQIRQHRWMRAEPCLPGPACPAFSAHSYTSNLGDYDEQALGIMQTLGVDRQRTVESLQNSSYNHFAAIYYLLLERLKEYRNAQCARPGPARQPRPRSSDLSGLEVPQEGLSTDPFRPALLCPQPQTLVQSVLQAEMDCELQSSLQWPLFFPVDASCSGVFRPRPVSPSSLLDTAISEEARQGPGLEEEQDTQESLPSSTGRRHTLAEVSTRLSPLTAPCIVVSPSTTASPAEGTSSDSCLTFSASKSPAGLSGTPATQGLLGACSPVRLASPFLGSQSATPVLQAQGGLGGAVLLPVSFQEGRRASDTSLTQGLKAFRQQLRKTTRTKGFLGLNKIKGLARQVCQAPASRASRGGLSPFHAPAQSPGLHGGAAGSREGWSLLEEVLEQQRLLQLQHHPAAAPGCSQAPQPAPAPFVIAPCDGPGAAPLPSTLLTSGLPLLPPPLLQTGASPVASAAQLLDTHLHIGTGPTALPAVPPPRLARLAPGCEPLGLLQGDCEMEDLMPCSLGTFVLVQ
In the next series the target is Recombinant SIK2 (Homo sapiens (Human), UniProt Q9H0K1). Put plainly: biochemical. The conditions noted are these: recombinant SIK2 2.5 nM, 1 μM ATP; read-out: SIK2 IC50. On the procedure: as §1
Chain of Recombinant SIK2 (Q9H0K1 whole entry): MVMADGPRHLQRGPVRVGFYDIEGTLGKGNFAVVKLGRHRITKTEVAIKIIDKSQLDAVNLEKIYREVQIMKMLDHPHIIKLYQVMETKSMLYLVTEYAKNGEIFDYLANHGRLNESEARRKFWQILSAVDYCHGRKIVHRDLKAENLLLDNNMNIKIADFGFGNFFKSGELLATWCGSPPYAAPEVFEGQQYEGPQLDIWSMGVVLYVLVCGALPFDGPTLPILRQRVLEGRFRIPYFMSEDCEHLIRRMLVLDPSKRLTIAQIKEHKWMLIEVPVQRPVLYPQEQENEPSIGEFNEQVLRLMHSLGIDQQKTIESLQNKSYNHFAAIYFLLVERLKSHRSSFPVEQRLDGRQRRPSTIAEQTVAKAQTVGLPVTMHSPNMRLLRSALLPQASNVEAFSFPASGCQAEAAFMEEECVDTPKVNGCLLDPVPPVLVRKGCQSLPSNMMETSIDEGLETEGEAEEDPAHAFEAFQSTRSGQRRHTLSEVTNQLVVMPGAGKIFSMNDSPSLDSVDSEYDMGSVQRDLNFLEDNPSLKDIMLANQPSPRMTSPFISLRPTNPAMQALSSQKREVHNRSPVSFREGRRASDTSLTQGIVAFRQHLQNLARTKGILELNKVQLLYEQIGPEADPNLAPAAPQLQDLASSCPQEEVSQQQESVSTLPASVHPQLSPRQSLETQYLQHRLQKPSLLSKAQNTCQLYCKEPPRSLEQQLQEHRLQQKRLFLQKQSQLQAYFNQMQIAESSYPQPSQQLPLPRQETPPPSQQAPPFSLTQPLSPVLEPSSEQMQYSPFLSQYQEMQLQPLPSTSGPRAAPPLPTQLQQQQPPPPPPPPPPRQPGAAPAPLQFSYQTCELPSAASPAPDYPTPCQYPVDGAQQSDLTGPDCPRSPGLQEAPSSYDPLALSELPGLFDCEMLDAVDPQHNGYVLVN
[2] abbreviates: HEK293 cells, compounds for 60 minutes, read-out: SIK2 NanoBRET.

Chain of NanoLuc-SIK2 fusion in HEK293 cells (Q9H0K1 whole entry, the tested form may be a part): as the sequence (Q9H0K1 whole entry) above

`CC1(COc2ccc3c(c2)ncn3-c2ccc3cccc(N4CCC5(CCN5)CC4)c3n2)COC1` [Example 3, 2-(5-((3-methyloxetan-3-yl)methoxy)-1H-benzo[d]imidazol-1-yl)-8-(1,7-diazaspiro[3.5]nonan-7-yl)quinoline]: the IC50 was 2.24 nM at SIK3, 8.86 nM in series [1] (setting [2]), 18.4 nM at SIK1 and 0.979 nM on Recombinant SIK2. The “CRTC2 Efficacy (% of forskolin)” value in the series on CRTC2 (TORC2) is given as 88.5 % of forskolin. Moreover, the “RANKL Fold Induction” value in the series on RANKL is recorded as 57.08 fold.

Take `CC1(COc2ccc3c(c2)ncn3-c2ccc3cccc(N4CC(N)C4)c3n2)COC1` [Example 7, 1-(2-(5-((3-methyloxetan-3-yl)methoxy)-1H-benzo[d]imidazol-1-yl)quinolin-8-yl)azetidin-3-amine]: the IC50 turned out to be 11.5 nM on SIK3, 43.2 nM in series [1] (setting [2]), 138 nM on SIK1 and 8.35 nM at Recombinant SIK2. In addition, the “CRTC2 Efficacy (% of forskolin)” value with CRTC2 (TORC2) is given as 89 % of forskolin. Moreover, the “RANKL Fold Induction” value with RANKL was 30.37 fold.

As to `COCCN1CCC12CCN(c1cccc3ccc(-n4cnc5cc(OCC6(C)COC6)ccc54)nc13)CC2` [Example 12, 8-[1-(2-Methoxyethyl)-1,7-diazaspiro[3.5]nonan-7-yl]-2-[5-[(3-methyloxetan-3-yl)methoxy]benzimidazol-1-yl]quinoline], the IC50 amounted to 11.9 nM at SIK3, 925 nM in series [1], 140 nM against SIK1 and 4.9 nM at Recombinant SIK2. Further, the “CRTC2 Efficacy (% of forskolin)” value with CRTC2 (TORC2) is 37.6 % of forskolin. Also, in the series on RANKL, the “RANKL Fold Induction” value was found to be 62.52 fold.

For the compound `CN1CC(c2cccc3ccc(-n4cnc5cc(OCC6(C)COC6)ccc54)nc23)C1` [Example 15, 8-(1-Methylazetidin-3-yl)-2-(5-((3-methyloxetan-3-yl)methoxy)-1H-benzo[d]imidazol-1-yl)quinoline], the IC50 against SIK3 was 1.12 nM; at SIK1, 4.37 nM; at Recombinant SIK2, 1.91 nM. Also, the “CRTC2 Efficacy (% of forskolin)” value in the series on CRTC2 (TORC2) is given as 63.5 % of forskolin. The “RANKL Fold Induction” value in the series on RANKL was 88.34 fold.

For the compound `N#Cc1ccc(-c2cnc3cc(C(=O)NCc4nc5ccccc5[nH]4)ccn23)cc1` [Example 22, N-((1H-benzo[d]imidazol-2-yl)methyl)-3-(4-cyanophenyl)imidazo[1,2-a]pyridine-7-carboxamide], the IC50 against SIK3 worked out at 497 nM; in series [1] (setting [2]), 117 nM; against SIK1, 13000 nM; on Recombinant SIK2, 5.58 nM. Moreover, in the series on CRTC2 (TORC2), the “CRTC2 Efficacy (% of forskolin)” value is listed as 12.9 % of forskolin. Also, the “RANKL Fold Induction” value in the series on RANKL came out at 1.19 fold.

For `N#Cc1ccc(-c2cnc3cc(C(=O)NCc4cn5ccccc5n4)ccn23)cc1` [Example 24, 3-(4-cyanophenyl)-N-(imidazo[1,2-a]pyridin-2-ylmethyl)imidazo[1,2-a]pyridine-7-carboxamide], the IC50 against SIK3 amounted to 835 nM; in series [1] (setting [2]), 42.1 nM; at SIK1 it was 12500 nM; on Recombinant SIK2, 11.4 nM. For the same compound, the “CRTC2 Efficacy (% of forskolin)” value in the series with CRTC2 (TORC2) was 21.2 % of forskolin. In addition, the “RANKL Fold Induction” value with RANKL was found to be 2.24 fold.

In the case of `N#Cc1ccc(-c2cnc3cc(C(=O)NCc4nc5ccncc5[nH]4)ccn23)cc1` [Example 25, N-((3H-imidazo[4,5-c]pyridin-2-yl)methyl)-3-(4-cyanophenyl)imidazo[1,2-a]pyridine-7-carboxamide], the results for the IC50 on SIK3, at SIK1 and at Recombinant SIK2 were 1190 nM, 5450 nM and 9.74 nM, respectively. The “CRTC2 Efficacy (% of forskolin)” value with CRTC2 (TORC2) is given as 1.6 % of forskolin. In addition, the “RANKL Fold Induction” value in the series on RANKL was 1.10 fold.

Turning to `COc1ccc(OC)c(-c2cnc3cc(C(=O)NCc4cccnc4)ccn23)c1` [Example 31, 3-(2,5-dimethoxyphenyl)-N-(3-pyridylmethyl)imidazo[1,2-a]pyridine-7-carboxamide], the IC50 was found to be 76.1 nM against SIK3, 4020 nM in series [1] and 409 nM on SIK1. In addition, in the series on CRTC2 (TORC2), the “CRTC2 Efficacy (% of forskolin)” value was 31.2 % of forskolin. In the series with RANKL, the “RANKL Fold Induction” value turned out to be 0.90 fold.

With `N#Cc1ccc(-n2cnc3cc(C(=O)NCc4cn5ccccc5n4)ccc32)cc1` [Example 33, 1-(4-cyanophenyl)-N-(imidazo[1,2-a]pyridin-2-ylmethyl)-1H-benzo[d]imidazole-5-carboxamide], the IC50 on SIK3 was determined as 2550 nM; in series [1] (setting [2]), 44.8 nM; at SIK1, 5420 nM; on Recombinant SIK2, 14.2 nM. Also, the “CRTC2 Efficacy (% of forskolin)” value in the series with CRTC2 (TORC2) is 21.7 % of forskolin. For the same compound, in the series with RANKL, the “RANKL Fold Induction” value was found to be 0.92 fold.

`N#Cc1ccc(-c2cnn3cc(C(=O)NCc4nc5cccnc5[nH]4)ccc23)cc1` [Example 35, 3-(4-Cyanophenyl)-N-(3H-imidazo[4,5-b]pyridin-2-ylmethyl)pyrazolo[1,5-a]pyridine-6-carboxamide]: the IC50 at SIK3 was 103 nM; in series [1] it was 93.2 nM; against SIK1, 2090 nM; at Recombinant SIK2 it was 7.55 nM. Besides, the “CRTC2 Efficacy (% of forskolin)” value with CRTC2 (TORC2) is recorded as 8.9 % of forskolin. Further, in the series with RANKL, the “RANKL Fold Induction” value is 0.39 fold.

For the compound `N#Cc1ccc(-c2cnn3cc(C(=O)NCc4cccnc4)ccc23)cc1` [Example 37, 3-(4-Cyanophenyl)-N-(3-pyridylmethyl)pyrazolo[1,5-a]pyridine-6-carboxamide], the IC50 at SIK3 was 310 nM; in series [1] (setting [2]), 116 nM; against SIK1 it was 775 nM; at Recombinant SIK2 it was 32.5 nM. Besides, the “CRTC2 Efficacy (% of forskolin)” value in the series on CRTC2 (TORC2) was 40.6 % of forskolin. Moreover, the “RANKL Fold Induction” value in the series with RANKL amounted to 1.17 fold.

In the case of `CCn1cc(-c2ccc3c(-c4ccc(C#N)cc4)cnn3c2)cn1` [Example 52, 4-[6-(1-Ethylpyrazol-4-yl)pyrazolo[1,5-a]pyridin-3-yl]benzonitrile], the IC50 was 1.64 nM against SIK3, 4.77 nM on SIK1 and 1.11 nM at Recombinant SIK2. Further, in the series with CRTC2 (TORC2), the “CRTC2 Efficacy (% of forskolin)” value is 77 % of forskolin. For the same compound, the “RANKL Fold Induction” value with RANKL was 19.99 fold.

Turning to `CCn1cc(-c2ccn3c(-c4ccc(-c5nnc(C)o5)cc4)cnc3c2)cn1` [Example 56, 2-(4-(7-(1-ethyl-1H-pyrazol-4-yl)imidazo[1,2-a]pyridin-3-yl)phenyl)-5-methyl-1,3,4-oxadiazole], the IC50 on SIK3 stood at 617 nM; against SIK1, 3120 nM; at Recombinant SIK2 it was 533 nM. Also, the “CRTC2 Efficacy (% of forskolin)” value in the series on CRTC2 (TORC2) is 4.9 % of forskolin. The “RANKL Fold Induction” value with RANKL is recorded as 2.18 fold.

With `CCc1nnc(-c2ccc(-c3cnc4cc(-c5cnn(C)c5)ccn34)cc2OC)o1` [Example 57, 2-ethyl-5-(2-methoxy-4-(7-(1-methyl-1H-pyrazol-4-yl)imidazo[1,2-a]pyridin-3-yl)phenyl)-1,3,4-oxadiazole], the IC50 against SIK3 was found to be 11 nM; in series [1] (setting [2]) it was 90.8 nM; against SIK1 it was 90.8 nM; at Recombinant SIK2, 8.76 nM. Moreover, in the series with RANKL, the “RANKL Fold Induction” value stood at 13.68 fold.

Regarding `CCc1nc(-c2c(OC)cc(-c3cnc4cc(-c5cnn(C)c5)ccn34)cc2OC)no1` [Example 61, 3-[2,6-Dimethoxy-4-[7-(1-methylpyrazol-4-yl)imidazo[1,2-a]pyridin-3-yl]phenyl]-5-ethyl-1,2,4-oxadiazole], the IC50 worked out at 8.25 nM on SIK3, 37.8 nM on SIK1 and 3.07 nM on Recombinant SIK2. Moreover, in the series on CRTC2 (TORC2), the “CRTC2 Efficacy (% of forskolin)” value is reported as 76.9 % of forskolin. Further, in the series with RANKL, the “RANKL Fold Induction” value stood at 19.00 fold.

Regarding `COc1cc(-c2cnc3cc(C(=O)NCc4ccc(C)nc4)ccn23)cc(OC)c1C(=O)NCC(F)(F)F` [Example 68, 3-[3,5-Dimethoxy-4-(2,2,2-trifluoroethylcarbamoyl)phenyl]-N-[(6-methyl-3-pyridyl)methyl]imidazo[1,2-a]pyridine-7-carboxamide], the figures for the IC50 on SIK3, against SIK1 and on Recombinant SIK2 were 8.67 nM, 94.7 nM and 12.4 nM, respectively. In addition, the “CRTC2 Efficacy (% of forskolin)” value with CRTC2 (TORC2) was 12 % of forskolin. In addition, in the series with RANKL, the “RANKL Fold Induction” value was 2.88 fold.
